Reference: paper PMC12217461 (Antimicrobial Agents and Chemotherapy, 2025)

Legend:
Assay type in all cases: cell-based
[1] = test system: Pseudomonas aeruginosa PA12; assay: microbe, parasite or virus in culture; conditions: IMP-13, TAN/XER fixed at 4 µg/mL, XER 8 µg/mL in MEM-XER, read-out: Minimal inhibitory concentration
Method: (§1) Most isolates and their respective β-lactamase content were characterized by whole-genome sequencing.
(§2) To assess the inhibitory potency of XER, susceptibility testing was performed by broth microdilution method, determining the minimal inhibitory concentrations (MICs) of different antibiotics or antibiotic plus β-lactamase inhibitor combinations, including cefepime (FEP), imipenem (IPM), meropenem (MEM), and their combinations with XER (FEP-XER, IPM-XER, and MEM-XER). All data obtained with XER-based combinations were compared with data with TAN-based combinations, FEP-TAN, IPM-TAN, and MEM-TAN ([16]). FEP was purchased from Sigma-Aldrich (Saint-Louis, USA), whereas MEM was from HuiChem (Shanghai, China). […] MICs were determined in triplicate in cation-adjusted Mueller-Hinton (MH) broth (Bio-Rad, Marnes-la-Coquette, France) according to the CLSI guidelines ([53]). The results were interpreted according to the decrease in MIC value for the same antibiotic or combination of the corresponding recombinant strain producing the MBL enzyme. […] In a recent phase I clinical evaluation, XER was combined with cefiderocol. However, as this latter β-lactam substrate is known to be poorly hydrolyzed by IMP enzymes, it was not considered for the evaluation of XER inhibitory activity in this study. Instead, carbapenems were used as a substrate to evaluate the β-lactamase IMP activity in the presence or absence of XER and TAN, as it was deemed more specific for the IMP carbapenemase activity.

[2] = test system: Klebsiella pneumoniae SMART 875; assay: microbe, parasite or virus in culture; conditions: SMART875, IMP-26, CTX-M-15, TEM-1 like, TAN/XER fixed at 4 µg/mL, XER 8 µg/mL in MEM-XER, read-out: Minimal inhibitory concentration
Method: as §1, §2

[3] = test system: Klebsiella pneumoniae SMART 882; assay: microbe, parasite or virus in culture; conditions: for MIC: Klebsiella pneumoniae, SMART882, read-out: Minimal inhibitory concentration
Method: as §1, §2

[4] = test system: Pseudomonas aeruginosa PA13; assay: microbe, parasite or virus in culture; conditions: IMP-15, TAN/XER fixed at 4 µg/mL, XER 8 µg/mL in MEM-XER, read-out: Minimal inhibitory concentration
Method: as §1, §2

[5] = test system: Pseudomonas aeruginosa CC02-010; assay: microbe, parasite or virus in culture; conditions: CC02010, IMP-7, TAN/XER fixed at 4 µg/mL, XER 8 µg/mL in MEM-XER, read-out: Minimal inhibitory concentration
Method: as §1, §2

C. freundii SMART 315 = assay: microbe, parasite or virus in culture; conditions: Citrobacter freundii, SMART315; IMP-4, CTX-M-9; TAN/XER fixed at 4 µg/mL, XER 8 µg/mL in MEM-XER; read-out: Minimal inhibitory concentration
Method: as §1, §2

[6] = test system: Klebsiella pneumoniae SMART 1134; assay: microbe, parasite or virus in culture; conditions: IMP-34, CTX-M-2, TAN/XER fixed at 4 µg/mL, XER 8 µg/mL in MEM-XER; for MIC: Klebsiella pneumoniae, SMART1134, read-out: Minimal inhibitory concentration
Method: as §1, §2

[7] = test system: Pseudomonas aeruginosa PA15; assay: microbe, parasite or virus in culture; conditions: IMP-19, TAN/XER fixed at 4 µg/mL, XER 8 µg/mL in MEM-XER, read-out: Minimal inhibitory concentration
Method: as §1, §2

[8] = test system: Klebsiella pneumoniae SMART 651; assay: microbe, parasite or virus in culture; conditions: SMART651, read-out: Minimal inhibitory concentration
Method: as §1, §2

Escherichia coli AZ 1677 = assay: microbe, parasite or virus in culture; conditions: AZ1677, IMP-59, TEM-1, TAN/XER fixed at 4 µg/mL, XER 8 µg/mL in MEM-XER, read-out: Minimal inhibitory concentration
Method: as §1, §2

[9] = test system: Enterobacter hormaechei subsp. steigerwaltii SMART 1276; assay: microbe, parasite or virus in culture; conditions: read-out: Minimal inhibitory concentration
Method: as §1, §2

[10] = test system: Escherichia coli SMART 640; assay: microbe, parasite or virus in culture; conditions: SMART640, IMP-14, CTX-M-27, OXA-10, TAN/XER fixed at 4 µg/mL, XER 8 µg/mL in MEM-XER, read-out: Minimal inhibitory concentration
Method: as §1, §2

[11] = test system: Serratia marcescens SMART 2558; assay: microbe, parasite or virus in culture; conditions: SMART2558, IMP-8, CTX-M-3, TAN/XER fixed at 4 µg/mL, XER 8 µg/mL in MEM-XER, read-out: Minimal inhibitory concentration
Method: as §1, §2

[12] = test system: Pseudomonas aeruginosa PA10; assay: microbe, parasite or virus in culture; conditions: IMP-2, TAN/XER fixed at 4 µg/mL, XER 8 µg/mL in MEM-XER, read-out: Minimal inhibitory concentration
Method: as §1, §2

[13] = test system: Pseudomonas aeruginosa C7; assay: microbe, parasite or virus in culture; conditions: IMP-7, TAN/XER fixed at 4 µg/mL, XER 8 µg/mL in MEM-XER, read-out: Minimal inhibitory concentration
Method: as §1, §2

E. coli IMP-7 = assay: MIC broth microdilution, recombinant E. coli; conditions: Escherichia coli, IMP7; IMP-7-like; TAN/XER fixed at 4 µg/mL, XER 8 µg/mL in MEM-XER; read-out: Minimal inhibitory concentration
Description: (§3) Genes encoding different acquired IMP-like enzymes suspected to be resistant to XER (blaIMP-6, blaIMP-7, blaIMP-10, blaIMP-14, blaIMP-26, blaIMP-34, and blaIMP-59) were amplified by PCR, and corresponding amplicons were cloned into plasmid pUCP24 and expressed in E. coli TOP10. The following recombinant E. coli strains producing IMP-1, IMP-4, IMP-19, and NDM-1 were used from a previous study ([16]). […] For that purpose, a list of primers was designed and provided as Table S1. […] The nomenclature used in this study was according to the BBL sequence numbering ([52]).
as §2

E. coli IMP-34 = assay: MIC broth microdilution, recombinant E. coli; conditions: Escherichia coli, IMP34; IMP-1-like, E126G; TAN/XER fixed at 4 µg/mL, XER 8 µg/mL in MEM-XER; read-out: Minimal inhibitory concentration
Description: as §3, §2

[14] = test system: Enterobacter hormaechei (cluster III) SMART 271; assay: microbe, parasite or virus in culture; conditions: read-out: Minimal inhibitory concentration
Method: as §1, §2

Structure (SMILES) | MIC [1] [mg/L] | MIC [2] [mg/L] | MIC [3] [mg/L] | MIC [4] [mg/L] | MIC [5] [mg/L] | MIC (C. freundii SMART 315) [mg/L] | MIC [6] [mg/L] | MIC [7] [mg/L] | MIC [8] [mg/L] | MIC (Escherichia coli AZ 1677) [mg/L] | MIC [9] [mg/L] | MIC [10] [mg/L] | MIC [11] [mg/L] | MIC [12] [mg/L] | MIC [13] [mg/L] | MIC (E. coli IMP-7) [mg/L] | MIC (E. coli IMP-34) [mg/L] | MIC [14] [mg/L] | Minimal inhibitory concentration ([3]; IMP-26, CTX-M-15, OXA-1, TAN/XER fixed at 4 µg/mL, XER 8 µg/mL in MEM-XER) [mg/L] | Minimal inhibitory concentration [6] [mg/L]
CO/N=C(\C(=O)N[C@@H]1C(=O)N2C(C(=O)[O-])=C(C[N+]3(C)CCCC3)CS[C@H]12)c1csc(N)n1 [FEP, cefepime] | 128 | 64 | 256 | 128 | > 256 | 16 | 256 | > 256 | 64 | 8 | > 256 | 128 | 32 | > 256 | > 256 | – | – | – | – | –
C[C@@H](O)[C@H]1C(=O)N2C(C(=O)O)=C(SCCN=CN)C[C@H]12 [IPM, imipenem] | 8 | ≤ 0.25 | ≤ 0.25 | 256 | 128 | ≤ 0.25 | 0.5 | 256 | 1 | ≤ 0.25 | 0.5 | 0.5 | ≤ 0.25 | 32 | 128 | 0.25 | 0.5 | 0.5 | – | –
C[C@@H](O)[C@H]1C(=O)N2C(C(=O)O)=C(S[C@@H]3CN[C@H](C(=O)N(C)C)C3)[C@H](C)[C@H]12 [MEM, meropenem] | 16 | 0.125 | 4 | 64 | 256 | 2 | 16 | 64 | 8 | 0.5 | 2 | 4 | 0.25 | 32 | 256 | 2 | 2 | 0.5 | 1 | 8
